Results published in patent US20240002313A1, “[11C]-LABELED ACYCLIC RETINOID, CENTRAL NERVOUS SYSTEM ACTIVATOR, AND PRODUCTION METHODS FOR SAME” (NATIONAL CENTER FOR GERIATRICS AND GERONTOLOGY, priority 2020, published 2024).

Columns and labels:
[1] = PET pharmacokinetic test of 11C-labeled acyclic retinoids in rats; type: in vivo, Sprague-Dawley rats; settings: rat, i.v.
Protocol: (§1) The ^11C-labeled acyclic retinoid 4c and the ^11C-labeled peretinoin 3 synthesized by the methods described above were administered intravenously (i.v.) to Sprague-Dawley rats and cynomolgus monkeys as a PET probe, and PET images were photographed.

[2] = PET pharmacokinetic test of 11C-labeled acyclic retinoids in cynomolgus monkeys; type: in vivo; settings: cynomolgus monkey, i.v.
Protocol: as §1

[3] = system: NMDA-type glutamate receptors; test: Calcium imaging of reactivity to NMDA in differentiated cells; type: cell-based, human; settings: NT2-N cells, Fluo-8, 100 μM NMDA solution
Protocol: In order to confirm a statement of synaptic receptors in mature cells, a calcium influx via NMDA-type glutamate receptors was measured as follows.
A fluorescent calcium indicator Fluo-8 AM (AAT Bioquest) was dissolved in Mg-free HHBS (Hepes-buffered Hanks' balanced salt solution (1.26 mM CaCl2, 5.33 mM KCl, 0.44 mM KH2PO4, 4.17 mM NaHCO3, 137.93 mM NaCl, 0.34 mM Na2HPO4, 5.56 mM D-glucose, 20 mM HEPES, pH 7.4)) containing 0.1 μM glycine (4 μM, 2 μM, respectively). This solution (1 ml) was loaded into NT2-N cells under conditions of 37° C. and 5% CO2 (2 hours, 30 minutes, respectively), and fluo8 was loaded into the cells. Thereafter, an extracellular fluid was replaced with Mg-free HHBS containing 0.1 μM glycine, and it was used for the following measurement after being left in an incubator (37° C., 5% CO2) of a living cell time-lapse imaging device (BioStation IM-Q, Nikon) for 1 hour or more. For the NT2-N cells placed in the device, 5 to 10 fields of view to be analyzed were manually set, and for each field of view, fluorescence intensity was continuously recorded every 2 seconds for 5 minutes at an excitation wavelength of 480 nm/a fluorescence wavelength of 520 nm. Further, after a certain period of time elapsed from the start of recording, 100 μl of the 100 μM NMDA solution (Mg-free HHBS containing 0.1 μM glycine) prepared above was administered.

[4] = system: NT2 cells; test: Differentiation induction from stem cells to nerve cells; type: cell-based, human; settings: peretinoin 3 10 μM, ATRA 1 μM or 10 μM
Protocol: NTERA-2 cl.D1 [NT2/D1] cells (ATCC CRL-1973) (hereinafter described as “NT2 cells”) derived from human pluripotent embryonic cancer were adhesion cultured in a maintenance culture medium (high glucose D-MEM (Sigma-Aldrich, D6429), 10% FBS, 100 U/ml penicillin/streptomycin) under conditions of 37° C. and 5% CO2 for 3 to 4 days on a 10 cm plastic dish until becoming confluent. The NT2 cells were exfoliated by Accutase (Innovative Cell Technologies, #AT104), passaged, and maintenance cultured for 50 days. The medium was changed three times a week. The maintenance cultured NT2 cells were dispersed in a petri dish for low-attached microorganisms (STAR SDish9015, RIKEN) at a concentration of 1.5×10^6 to 2.5×10^6/dish, and suspension cultured on a vibrator (100 rpm) under conditions of 37° C. and 5% CO2, and after one day, 1 μM or 10 μM ATRA was added to induce differentiation and form spheroids. After 14 days, the spheroids were recovered, seeded on a 10 cm dish coated with 5 μg/ml poly-D-lysine (PDL) (Sigma-Aldrich)/laminin (LAM) (iMatrix-511, Nippi), and adhesion cultured under conditions of 37° C. and 5% CO2. […]

[5] = Non Patent Literature 2 and 3; cited from earlier work
[6] = system: cerebral hemorrhage; test: Effect on cerebral hemorrhage pathology (collagenase injection into striatum); type: in vivo, ICR mouse
Protocol: A male ICR mouse aged 8 to 10 weeks was placed in a brain stereotaxic apparatus under triple anesthesia, and bleeding was induced by injecting 0.035 U of collagenase type VII (Sigma) into a fixed coordinate (2.3 mm lateral to a median, 0.2 mm posterior to a bregma suture, 3.5 mm below a skull) in the striatum over 2.5 minutes using a 30 gauge needle. After that, the surface of the skull was reduced with dental cement, and breeding was continued. The peretinoin 3 (40 mg/kg) was suspended in water together with 0.5% carboxymethyl cellulose, and administered intragastrically using an oral sonde three times in total 3, 27, and 51 hours after the bleeding induction. Note that for comparison, 0.5% carboxymethyl cellulose without the peretinoin 3 was also administered intragastrically in a similar manner. A degree of motor dysfunction in the mouse was evaluated by performing two types of motor function tests (beam walking test, modified limb-placing test) 6, 24, 48, and 72 hours after the bleeding induction. Further, after completion of the motor function test 72 hours later, the mouse was perfused and fixed under anesthesia, and the brain was extracted to prepare a frozen coronary section having a thickness of 16 μm. The effects of the peretinoin 3 were evaluated by identifying microglia, astrocytes, and neurons in the brain tissue, respectively, through immunohistochemistry using antibodies against Iba1, GFAP, and NeuN, and quantifying the number of cells in a given area or an immune reaction positive area.

[7] = system: cerebral cortex-striatal tissue sections; test: Inhibitory effect on thrombin toxicity in cultured brain slices; type: cell-based, Wistar/ST rat; settings: 10, 20, 30 μM; thrombin 100 U/ml, 72 hours
Protocol: (§2) Thrombin is known to induce cerebral cortex cell death and striatal tissue atrophy. Therefore, an experiment for evaluating thrombin toxicity was performed. In other words, a coronal section having a thickness of 300 μm was prepared from a brain of a Wistar/ST rat aged 2 to 3 days after birth, a fan-shaped tissue piece including a cerebral cortex and striatum was cut out, and then left to stand on a porous membrane (Millicell-CM, Millipore Corporation), and culture was maintained at a gas-liquid interface under a conditions of 34° C./5% CO2 (medium composition: 50% minimal essential medium, 25% Hanks' balanced salt solution, 25% horse serum). […] PI fluorescence images were acquired using a fluorescence microscope (Keyence) 72 hours after a start of thrombin treatment, and a degree of cell death was evaluated using fluorescence intensity of a cortical region as an index (sections of 100 μM NMDA treated for 72 hours were provided for each experiment, and their PI fluorescence intensity was standardized as 100%). Further, an area of a striatal region in each tissue piece was measured from bright field images of cultured tissue pieces acquired before and after the thrombin treatment, and a rate of tissue atrophy due to the thrombin treatment was quantified.

[8] = system: cerebral cortex-striatal tissue sections; test: Evaluation using K252a (TrkB inhibitor) of the cytoprotective effect against thrombin; type: cell-based, Wistar/ST rat; settings: thrombin + K252a (3 μM)
Protocol: as §2, with “quantified. […]” for “quantified.”

[9] = radioactivity in brain for each time
[10] = radioactivity in brain over time
[11] = 40 mg/kg intragastrically, 6, 24, 48, 72 hours after bleeding
[12] = 40 mg/kg intragastrically, brain taken 72 hours after bleeding

With `CC(C)=CCC/C(C)=C/CC/C(C)=C/C=C/C([11CH3])=C/C(=O)O` [^11C-labeled peretinoin 3] as the compound, how does the “migration into the brain (PET image)” value ([1]; PET probe) read?
The value was “migrated into a brain”.

And the “start of migration into the brain after administration” value [1, 9]?
The value was “within several minutes”.

And the “accumulation in the brain compared with the concentration when uniformly distributed throughout the body” value [1, 10]?
The value was 1.3 times.

What about the “migration into the brain (PET image)” value ([2]; PET probe) of the same compound?
The value was “migrated into a brain”.

And the “start of migration into the brain after administration” value [2, 9]?
Its value is “within several minutes”.

And the “accumulation in the brain compared with the concentration when uniformly distributed throughout the body” value [2, 10]?
The value was 3.0 times.

Which results are given for `CC1=C(/C=C/C(C)=C/C=C/C(C)=C/C(=O)O)C(C)(C)CCC1` [ATRA, All-trans-retinoic acid, reference compound]?
expression of NMDA-type glutamate receptors in induced nerve cells (calcium imaging, NMDA) [3]: expressed NMDA-type glutamate receptors; number of cells expressing MAP2 without expressing nestin (differentiation induction into nerve cells) [4]: increased

With `CC1(C)CCC(C)(C)c2cc(NC(=O)c3ccc([11C](=O)O)cc3)ccc21` [^11C-labeled Am80] as the compound, how does the “intracerebral migration when used as a PET probe” value [5] read?
The value was “no intracerebral migration was observed”.

What does the source list for `CC(C)=CCC/C(C)=C/CC/C(C)=C/C=C/C(C)=C/C(=O)O` [peretinoin 3, (2E,4E,6E,10E)-3,7,11,15-tetramethylhexadeca-2,4,6,10,14-pentaenoic acid]?
changes in body weight after cerebral hemorrhage ([6]; 40 mg/kg intragastrically 3, 27, 51 hours after bleeding induction): suppressed weight loss; beam-walking test: fall rate [6, 11]: decrease; beam-walking test: score [6, 11]: increase; beam-walking test: walking width [6, 11]: increase; modified limb-placing test: deficit score [6, 11]: decrease; motor dysfunction ([6]; 40 mg/kg intragastrically, 24 to 72 hours after bleeding): significantly alleviated; accumulation of activated microglia around a hematoma (Iba1 immunohistochemistry) [6, 12]: significantly suppressed; shedding of nerve cells in the hematoma (NeuN immunohistochemistry) [6, 12]: suppressed; expression of NMDA-type glutamate receptors in induced nerve cells (calcium imaging, NMDA) [3]: expressed NMDA-type glutamate receptors; number of cells expressing MAP2 without expressing nestin (differentiation induction into nerve cells) [4]: increased; cerebral cortex cell death induced by thrombin (PI fluorescence) [7]: concentration-dependent and significantly suppressed; striatal tissue atrophy induced by thrombin [7]: concentration-dependent and significantly suppressed; inhibitory effect on striatal atrophy in the presence of K252a [8]: not blocked by K252a; protective effect on cerebral cortex cells in the presence of K252a [8]: blocked by K252a

For `Cc1cc2c(cc1-n1nnc3cc([11C](=O)O)ccc31)C(C)(C)CCC2(C)C` [^11C-labeled CBt-PMN], which “intracerebral migration when used as a PET probe” value [5] is on record?
The value was “higher intracerebral migration than that of ^11C-labeled bexarotene”.
